{
  "source": "patent US9498546B2",
  "about": "“Synthesis and application of novel imaging agents conjugated to DPA 713 analogs for imaging inflammation” (THE JOHNS HOPKINS UNIVERSITY, priority 2012, dated 2016)",
  "key": {"[1]": {"system": "TSPO+ PC-3 PIP and PC-3 flu prostate xenografts", "assay": "In vivo NIRF imaging in PC-3 PIP and PC-3 flu xenograft bearing mice", "parameters": "species or system athymic nude mice", "conditions": "for Distribution of fluorescent signal, tracer only: 8 nmol intraperitoneally", "protocol": "(§1) FIG. 7 depicts imaging of athymic nude mice bearing two subcutaneous xenografts each consisting of one PC-3 PIP (PSMA+ stable transfected, macrophage and vasculature enriched) and PC-3 flu (PC-3 transfected with empty vector) were injected intraperitoneally with 8 nmol of DPA-713-IRDye680LT when the tumors reached 4-8 mm in diameter. […] The mice were imaged in vivo at 1 hour post-injection and again at 24 hours post-injection.\nProstate lines PC-3 PIP (PSMA stable transfected) and PC-3 flu (empty vector transfected) cells were originally a gift from Warren B. Heston (Cleveland Clinic Foundation). PC-3 is androgen insensitive and constituitively expresses TSPO. […] Intact male athymic nude mice were inoculated subcutaneously with 2×10^6 PC-3 PIP cells behind the right forearm and 2×10^6 PC-3 flu cells behind the left forearm and were allowed to grow for 14 days until they reached 1 cm in longest diameter. Mice bearing LNCaP xenografts were inoculated with 5×10^6 cells in Matrigel (1:1, vol:vol) (Becton Dickenson, Franklin Lakes, N.J.) and were allowed to grow for a year before they reached 1 cm in diameter. The mice were then used in imaging experiments as described below.\nPC-3 PIP and -flu xenograft bearing mice. […] The mice were anesthetized with isoflurane gas (2% in oxygen) and imaged at 1 hour and 24 hours post-injection using the Pearl Impulse imager using the 680 absorption/710 emission channels (DPA-713-IRDye680LT). PIP/flu and LNCaP-bearing mice were imaged using the inventive probe DPA-713-IRDye800CW at 1 hour post-injection using a Perkin Elmer IVIS 200 instrument set to absorb at 790 nm and emit at 810 nm. Images were visualized and processed using the manufacturer's Living Image software.\nas §1, with “Prostate tumors that have become androgen insensitive constituitively express TSPO, including the PC-3 cell line. Athymic” for “FIG. 7 depicts imaging of athymic”"}, "[2]": {"system": "TSPO+ MDA-MB-231 / MDA-MB-231-PSMA xenografts", "assay": "In vivo NIRF imaging in TSPO+ MDA-MB-231 breast cancer xenograft bearing mice", "parameters": "species or system NOD-SCID mice", "conditions": "6 nmol intraperitoneally; imaged 1-24 hours", "protocol": "Cell lines and Tumor Models. Generation of MDA-MD-231-LMD-PSMA cells. LV-PSMA is a VSV-G pseudotyped lentivirus encoding PSMA which was packaged in 293T cells. LMD-PSMA cells were generated in-house by repetitive lentiviral transduction of a cell line isolated from a lung metastasis derived MDA-MB-231 xenograft in a female NOD-SCID mouse. PSMA expression was evaluated by western blot analysis with 7E11-05 (1:200 dilution). […] Six-to-eight week old female NOD SCID mice were injected subcutaneously with 5×10^6 MDA-MB-231-LMD (a lung metastasis-derived subline of parental MDA-MB-231 behind the right forearm and 5×10^6 MDA-MB-231-LMD-PSMA (the same cell line with Prostate Specific Membrane Antigen (PSMA) stably knocked in via lentiviral vector) injected behind the […] xenografts were allowed to grow until the PSMA xenograft was at least 3 mm in diameter while the −LMD xenograft had reached 6-8 mm in diameter.\nSerial in vivo NIRF imaging in TSPO+MDA-MB-231 LMD±PSMA and PC-3 PIP and -flu tumor xenograft bearing mice. MDA-MB-231 LMD lines: one mouse was imaged serially at 1 hour post-tracers, 4 hours, 8 hours and 24 hours post-tracers using a Pearl Impulse Imager (LI-COR Biosciences) with dedicated 710 and 800 nm emission filters. All images were scaled to the same maximum using the manufacturer's software to facilitate direct comparison of all timepoints. […]"}},
  "data": [
    {"smiles": "CCN(CC)C(=O)Cc1c(-c2ccc(OCCNC(=O)CCCCc3cccc(C(=C\\C=C4/N(CCCS(=O)(=O)O)c5ccc6c(S(=O)(=O)O)cc(S(=O)(=O)O)cc6c5C4(C)C)/C=C/C4=[N+](CCCS(=O)(=O)[O-])c5ccc6c(S(=O)(=O)O)cc(S(=O)(=O)O)cc6c5C4(C)C)c3)cc2)nn2c(C)cc(C)nc12", "note": "[DPA-713-IRDye680LT, 3-(2-((1E,3Z,5Z)-3-(3-(5-(2-(4-(3-(2-(diethylamino)-2-oxoethyl)-5,7-dimethylpyrazolo[1,5-a]pyrimidin-2-yl)phenoxy)ethylamino)-5-oxopentyl)phenyl)-5-(1,1-dimethyl-6,8-disulfo-3-(3-sulfopropyl)-1Hbenzo[e]indol-2(3H)-ylidene)penta-1,3-dienyl)-1,1-dimethyl-6,8-disulfo-1H-benzo[e]indolium-3-yl)propane-1-sulfonate]", "values": [
      {"measurement": "Distribution of fluorescent signal, tracer only", "setting": "[1]; 1 hour post-injection", "value": "only the macrophage enriched PC-3 PIP tumor is clearly visible"},
      {"measurement": "Distribution of fluorescent signal, tracer only", "setting": "[1]; 24 hours post-injection", "value": "distributed at the periphery of both tumors in the tracer-only mouse and is strongly retained by TSPO+ kidneys"},
      {"measurement": "Tumor uptake with co-administered unlabeled DPA-713", "setting": "[1]; 8 nmol tracer + 20 mg/kg unlabeled DPA-713, 1 hour post-injection", "value": "Neither tumor takes up the fluorescent probe"},
      {"measurement": "Tumor and kidney uptake with co-injected unlabeled DPA-713", "setting": "[1]; 8 nmol tracer + 20 mg/kg unlabeled DPA-713, 24 hours post-injection", "value": "neither tumor nor kidney uptake"},
      {"measurement": "Clearance of unbound probe", "setting": "[1]; 24 hours post-injection, intraperitoneal", "value": "cleared from the peritoneal space"},
      {"measurement": "Probe uptake in the larger (8 mm) PSMA+ xenograft", "setting": "[2]", "value": "visible 1 hour following peritoneal injection and continues through 24 hours after injection"},
      {"measurement": "Probe uptake in the smaller (3 mm) parental xenograft", "setting": "[2]", "value": "no observable uptake until the fur and skin are removed at 24 hours post-injection"}
    ]}
  ]
}
